Several values for one entry are separate records, joined by “and”; a condition that tells them apart may be missing. Equal values may be shown once. Read-outs that look alike come from different tables or passages of the source.
Molecular target: T1, Human K2P13.1 THIK-1 (WT) (Homo sapiens, UniProt Q9HB14)
T1 construct: expressed in transfected cells; host or cells: Xenopus oocytes (mRNA injection)
T1 sequence (Q9HB14 1-408): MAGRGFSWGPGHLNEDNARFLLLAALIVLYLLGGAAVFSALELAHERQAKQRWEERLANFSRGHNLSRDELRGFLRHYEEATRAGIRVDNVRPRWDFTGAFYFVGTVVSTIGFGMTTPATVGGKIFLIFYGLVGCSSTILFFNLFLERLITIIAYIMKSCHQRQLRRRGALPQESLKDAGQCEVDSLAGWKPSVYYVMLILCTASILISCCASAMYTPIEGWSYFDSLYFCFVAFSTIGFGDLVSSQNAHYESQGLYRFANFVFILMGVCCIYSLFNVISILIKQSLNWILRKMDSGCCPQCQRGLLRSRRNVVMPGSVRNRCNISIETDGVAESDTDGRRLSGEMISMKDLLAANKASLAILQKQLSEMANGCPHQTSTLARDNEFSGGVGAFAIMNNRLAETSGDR
Test: Macroscopic inside-out excised patch recordings from Xenopus oocytes expressing WT THIK-1; compounds applied to the intracellular side
Assay type: cell-based
Text: Human K2P13.1 THIK-1 (GenBank accession number: NM_022054) and human K2P12.1 THIK-2 (NM_022055.1) were used in this study. For functional expression studies, the respective K^+ channel subtype coding sequences were subcloned into the oocyte expression vector pSGEM or the dual-purpose expression vector pFAW[41] and verified by sequencing. All mutant channels were obtained by site-directed mutagenesis and verified by sequencing. To increase surface expression and macroscopic currents, measurements of THIK-2 channels used a mutated ER retention motif, (R11A R12A R14A R15A R16A; THIK-2*)[20]. Vector DNA was linearized with NheI or MluI, and mRNA was synthesized in vitro using the SP6 or T7 AmpliCap Max High Yield Message Maker Kit (Cellscript, USA) or HiScribe T7 ARCA mRNA Kit (New England Biolabs).
Two-electrode voltage–clamp (TEVC) studies were performed in Xenopus oocytes. All animal use conformed to the Guide for the Care and Use of Laboratory Animals (NIH Publication 85–23), and all experiments using Xenopus toads were approved by the local ethics panels. Oocytes were stored at 17 °C in ND96 recording solution composed of (in mM): 96 NaCl, 2 KCl, 1.8 CaCl2, 1 MgCl2, 5 HEPES (pH 7.5 adjusted with NaOH and HCl), supplemented with Na-pyruvate (275 mg L^–1), theophylline (90 mg L^–1) and gentamicin (50 mg L^–1). Oocytes were injected with 1 ng mRNA for WT or mutant channels, and were incubated for 24–48 h at 17 °C. Two-electrode voltage clamp recordings were then performed as previously described[42],[43]. For macroscopic patch–clamp measurements, oocytes were obtained as described above incubated at 17 °C in a solution containing (mM): 54 NaCl, 30 KCl, 2.4 NaHCO3, 0.82 MgSO4 ×7 H2O, 0.41 CaCl2, 0.33 Ca(NO3)2 ×4 H2O and 7.5 TRIS (pH 7.4 adjusted with NaOH and HCl) for 1–4 days before use. Excised patch recordings in inside-out configuration conditions were performed at room temperature. Patch pipettes were made from thick-walled borosilicate glass GB 200TF-8P (Science Products), had resistances of 0.2–0.5 MΩ (tip diameter, 10–25 µm) and filled with a pipette solution (in mM): 120 KCl, 10 HEPES and 3.6 CaCl2 (pH 7.4 adjusted with KOH and HCl). Intracellular bath solutions and compounds were applied to the cytoplasmic side of excised patches for the various K^+ channels through a gravity flow multi-barrel pipette system. The intracellular solution had the following composition (in mM): 120 KCl, 10 HEPES, 2 EGTA and 1 pyrophosphate (pH adjusted with KOH and HCl). Currents were recorded with an EPC10 amplifier (HEKA Electronics) and sampled at 10 kHz or higher, with filtering set to 3 kHz (–3 dB) or higher, as appropriate for sampling rate. For measurements of GPCR activation, whole-cell currents were recorded for THIK-1 in transiently transfected HEK-293 cells. Cells were stimulated by a ramp protocol between −100 and +60 mV (holding potential, −80 mV). The pipette solution was composed of (in mM): 140 KCl, 2 MgCl2, 1 CaCl2, 2.5 EGTA and 10 HEPES (pH 7.3 adjusted with KOH and HCl). The extracellular bath solution had the following composition (in mM): 135 NaCl, 5 KCl, 2 MgCl2, 2 CaCl2, 10 glucose and 10 HEPES pH (pH 7.3 adjusted with NaOH and HCl). Oxotremorine M (Oxo-M) was added to extracellular bath solution to obtain the final concentration. Single-channel currents were recorded with an Axopatch 200B amplifier through a Digidata 1440A digitizer (Molecular Devices). Data were filtered at 2 kHz and recorded at a 200-kHz sampling rate with the program Clampex (Molecular Devices). Pipette solution and bath solution for cell-attached recordings contained (in mM): 140 KCl, 2 MgCl2, 1 CaCl2 and 10 HEPES (pH 7.4 adjusted with KOH and HCl). For inside-out recordings, the bath solution contained (in mM): 140 KCl, 2 MgCl2, 1 CaCl2 and 10 HEPES (pH 7.2 adjusted with KOH and HCl). All experiments were conducted at room temperature. […]

[1] = WT (unstimulated), individual recordings
[2] = WT, PIP2, individual recordings
[3] = WT, oleoyl-CoA, individual recordings

SMILES: CCCCC[N+](CCCCC)(CCCCC)CCCCC [TPenA, tetrapentylammonium]
- block of initial currents (0.5 mM TPenA, WT): ~ 80%
- Normalized currents (THIK-1 WT (unstimulated), 0.01 µM TPenA): 1.00
- Normalized currents (THIK-1 WT (unstimulated), 0.1 µM TPenA): 0.97
- Normalized currents (THIK-1 WT (unstimulated), 1 µM TPenA): 0.94
- Normalized currents (THIK-1 WT (unstimulated), 10 µM TPenA): 0.88
- Normalized currents (THIK-1 WT (unstimulated), 15.6 µM TPenA): 0.89
- Normalized currents (THIK-1 WT (unstimulated), 62.5 µM TPenA): 0.75
- Normalized currents (THIK-1 WT (unstimulated), 100 µM TPenA): 0.71
- Normalized currents (THIK-1 WT (unstimulated), 250 µM TPenA): 0.49
- Normalized currents (THIK-1 WT (unstimulated), 1000 µM TPenA): 0.21
- Normalized currents (THIK-1 WT (unstimulated), 4000 µM TPenA): 0.09
- Normalized currents (THIK-1 WT (unstimulated), 5000 µM TPenA): 0.09
- Normalized currents (TPenA 0.01 µM, THIK-1 WT (oleoyl-CoA, 5 µM)): 1
- Normalized currents (TPenA 0.01 µM, THIK-1 WT (unstimulated)): 1.00
- Normalized currents (TPenA 0.1 µM, THIK-1 WT (PIP2)): 1
- Normalized currents (TPenA 0.1 µM, THIK-1 WT (oleoyl-CoA, 5 µM)): 0.87
- Normalized currents (TPenA 0.1 µM, THIK-1 WT (unstimulated)): 0.97
- Normalized currents (TPenA 1 µM, THIK-1 WT (PIP2)): 0.86
- Normalized currents (TPenA 1 µM, THIK-1 WT (oleoyl-CoA, 5 µM)): 0.81
- Normalized currents (TPenA 1 µM, THIK-1 WT (unstimulated)): 0.94
- Normalized currents (TPenA 4 µM, THIK-1 WT (PIP2)): 0.54
- Normalized currents (TPenA 4 µM, THIK-1 WT (oleoyl-CoA, 5 µM)): 0.48
- Normalized currents (TPenA 10 µM, THIK-1 WT (unstimulated)): 0.88
- Normalized currents (TPenA 15.6 µM, THIK-1 WT (PIP2)): 0.26
- Normalized currents (TPenA 15.6 µM, THIK-1 WT (oleoyl-CoA, 5 µM)): 0.22
- Normalized currents (TPenA 15.6 µM, THIK-1 WT (unstimulated)): 0.89
- Normalized currents (TPenA 62.5 µM, THIK-1 WT (PIP2)): 0.1
- Normalized currents (TPenA 62.5 µM, THIK-1 WT (oleoyl-CoA, 5 µM)): 0.09
- Normalized currents (TPenA 62.5 µM, THIK-1 WT (unstimulated)): 0.75
- Normalized currents (TPenA 100 µM, THIK-1 WT (unstimulated)): 0.71
- Normalized currents (TPenA 250 µM, THIK-1 WT (PIP2)): 0.03
- Normalized currents (TPenA 250 µM, THIK-1 WT (oleoyl-CoA, 5 µM)): 0.04
- Normalized currents (TPenA 250 µM, THIK-1 WT (unstimulated)): 0.49
- Normalized currents (TPenA 1000 µM, THIK-1 WT (PIP2)): 0.02
- Normalized currents (TPenA 1000 µM, THIK-1 WT (oleoyl-CoA, 5 µM)): 0.02
- Normalized currents (TPenA 1000 µM, THIK-1 WT (unstimulated)): 0.21
- Normalized currents (TPenA 4000 µM, THIK-1 WT (PIP2)): 0.01
- Normalized currents (TPenA 4000 µM, THIK-1 WT (oleoyl-CoA, 5 µM)): 0.02
- Normalized currents (TPenA 4000 µM, THIK-1 WT (unstimulated)): 0.09
- Normalized currents (TPenA 5000 µM, THIK-1 WT (unstimulated)): 0.09
- IC50 (TPenA IC50, THIK-1 WT, individual recordings): 228 µM and 219 µM and 204 µM (2×) and 231 µM and 268 µM and 259 µM and 120 µM and 223 µM and 194 µM and 240 µM and 308 µM
- IC50 (TPenA IC50, THIK-1 WT, mean): 225 µM
- IC50 (TPenA IC50, intracellular application to excised patches, WT unstimulated): 225 ± 13 µM
- τ of 1 mM TPenA block [1]: 14.000 s and 10.890 s and 8.250 s and 24.220 s and 9.660 s and 10.730 s and 11.070 s and 13.110 s and 12.070 s and 8.080 s and 8.510 s
- τ of 1 mM TPenA release [1]: 76.730 s and 96.620 s and 52.570 s and 76.880 s and 103.780 s and 38.820 s and 101.050 s and 68.790 s and 74.350 s and 174.000 s and 73.800 s
- τ of 1 mM TPenA block (WT (unstimulated), mean): 11.87 s
- τ of 1 mM TPenA release (WT (unstimulated), mean): 85.22 s
- τblock (kinetics of TPenA block) (WT unstimulated): 12 ± 1 s
- τrelease (kinetics of TPenA release) (WT unstimulated): 85 ± 11 s
- τ of 1 mM TPenA block [2]: 0.324 s and 0.375 s and 0.323 s and 0.215 s and 0.293 s
- τ of 1 mM TPenA release [2]: 29.360 s and 29.550 s and 28.630 s and 28.550 s and 38.470 s and 25.420 s
- τblock (WT, PIP2 activated): 0.31 ± 0.02 s
- τrelease (WT, PIP2 activated): 30 ± 2 s
- τ of 1 mM TPenA block (WT, PIP2 activated, mean): 0.31 s
- τ of 1 mM TPenA release (WT, PIP2 activated, mean): 30.00 s
- τblock (WT, oleoyl-CoA activated): 0.5 ± 0.1 s
- τrelease (WT, oleoyl-CoA activated): 11 ± 1 s
- τ of 1 mM TPenA block (WT, oleoyl-CoA activated, mean): 0.53 s
- τ of 1 mM TPenA release (WT, oleoyl-CoA activated, mean): 10.85 s
- τ of 1 mM TPenA block [3]: 0.330 s and 0.560 s and 0.270 s and 0.340 s and 0.440 s and 0.930 s and 0.380 s and 0.720 s and 0.750 s and 0.360 s
- τ of 1 mM TPenA release [3]: 7.190 s and 6.440 s and 12.640 s and 12.180 s and 15.140 s and 8.860 s and 13.480 s
- inhibition at 15.6 µM (read-out: inhibition with 15.6 µM TPenA, WT channel in PIP2): 74 ± 1%
- inhibition at 15.6 µM (read-out: inhibition with 15.6 µM TPenA, WT channel in oleoyl-CoA): 78 ± 1%
- inhibition at 15.6 µM (read-out: inhibition with 15.6 µM TPenA, WT channel, unstimulated): 11 ± 1%

From article PMC12263422, “Cryo-EM structure of the human THIK-1 K2P K^+ channel reveals a lower Y gate regulated by lipids and anesthetics” (Nature Structural & Molecular Biology, 2025)
